The values below are quoted from earlier work in patent US20090155358A1, “PHARMACEUTICAL COMPOSITIONS OF SHORT-ACTING HYPNOTIC AGENTS IN MODIFIED-RELEASE FORMS AND THE […] PREPARE THE MENTIONED FORMULATION” (Gador S.A., priority 2005, published 2009).

Structures can show the parent of a compound that is named as a salt.

One data set addresses T1, BZ1 receptor (Homo sapiens, UniProt P14867+P18507).
T1 sequence (P14867 28-456): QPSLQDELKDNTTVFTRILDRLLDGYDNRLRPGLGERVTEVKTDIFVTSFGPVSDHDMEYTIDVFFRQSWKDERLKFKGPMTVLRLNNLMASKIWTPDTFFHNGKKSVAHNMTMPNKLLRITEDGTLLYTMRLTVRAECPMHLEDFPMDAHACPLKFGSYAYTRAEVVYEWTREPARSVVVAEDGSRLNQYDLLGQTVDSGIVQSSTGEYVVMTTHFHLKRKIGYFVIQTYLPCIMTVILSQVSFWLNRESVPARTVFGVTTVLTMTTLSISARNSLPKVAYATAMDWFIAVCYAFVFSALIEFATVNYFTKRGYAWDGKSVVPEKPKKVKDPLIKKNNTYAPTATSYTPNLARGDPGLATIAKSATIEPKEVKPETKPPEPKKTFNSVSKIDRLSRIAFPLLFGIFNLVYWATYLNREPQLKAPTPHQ
T1 sequence (P18507 40-467 limits assumed): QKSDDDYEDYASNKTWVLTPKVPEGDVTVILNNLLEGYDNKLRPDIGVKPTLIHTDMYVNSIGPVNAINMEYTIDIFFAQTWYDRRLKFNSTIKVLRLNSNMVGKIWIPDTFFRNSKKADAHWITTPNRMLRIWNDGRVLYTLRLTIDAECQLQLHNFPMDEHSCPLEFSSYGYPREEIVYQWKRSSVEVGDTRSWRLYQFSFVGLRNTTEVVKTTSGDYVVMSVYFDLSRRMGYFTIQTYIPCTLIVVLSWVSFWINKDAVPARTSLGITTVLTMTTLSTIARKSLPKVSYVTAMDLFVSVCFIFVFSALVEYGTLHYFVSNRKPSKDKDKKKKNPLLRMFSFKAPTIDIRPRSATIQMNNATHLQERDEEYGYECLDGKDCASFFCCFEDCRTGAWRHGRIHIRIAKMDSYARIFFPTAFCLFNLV
T1 sequence (P47870 25-512 partner limits assumed): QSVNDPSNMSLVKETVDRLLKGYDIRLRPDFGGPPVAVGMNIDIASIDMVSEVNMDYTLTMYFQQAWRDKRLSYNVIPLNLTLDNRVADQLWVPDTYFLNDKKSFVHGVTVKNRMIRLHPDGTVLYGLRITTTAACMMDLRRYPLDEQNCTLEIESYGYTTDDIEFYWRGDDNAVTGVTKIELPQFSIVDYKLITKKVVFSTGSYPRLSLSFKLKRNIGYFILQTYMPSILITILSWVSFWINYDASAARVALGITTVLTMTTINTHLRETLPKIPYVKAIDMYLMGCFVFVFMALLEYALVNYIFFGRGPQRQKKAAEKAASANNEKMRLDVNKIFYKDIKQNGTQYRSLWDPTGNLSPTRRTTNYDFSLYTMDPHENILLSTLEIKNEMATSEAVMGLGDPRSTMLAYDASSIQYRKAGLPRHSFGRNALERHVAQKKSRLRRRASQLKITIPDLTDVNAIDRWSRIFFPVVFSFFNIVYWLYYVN
Particulars: in vitro.

Take `Cc1ccc(-c2nc3ccc(C)cn3c2CC(=O)N(C)C)cc1` [Zolpidem, N,N,6-trimethyl-2-p-toyl-imidazo[1,2-a]pyridine-3-acetamide]: at BZ1 receptor, the “affinity for BZ1 receptor, subunits α1/α5” value is “large affinity”.
With `Cc1ccc(-c2nc3ccc(C)cn3c2CC(=O)N(C)C)cc1` [Zolpidem tartrate, N,N,6-trimethyl-2-p-toyl-imidazo[1,2-a]pyridine-3-acetamide], under “alcohol”, the solubility in alcohol entry is listed as “sparingly soluble”. Also, the “solubility in propylene glycol” value (propylene glycol) is “sparingly soluble”. For the setting “water”, the solubility in water result is “sparingly soluble”.
